This passage reports Sleep duration and Sleep latency results from patent US20250049759A1, “PHARMACEUTICAL PREPARATION FOR ASSISTING IN PROMOTING SLEEP AND PREPARATION METHOD THEREOF” (Changde Jizhi Biological Technology Co., Ltd, priority 2023, published 2025).

Molecules are shown by their SMILES.

The subject of this assay is Kunming mice. Kind of assay: Effects on sleep in mice: pentobarbital sodium of suprathreshold dose, sleep latency and duration. It is filed as in vivo. As to conditions: gavage once a day for two consecutive weeks (diazepam 0.75 mg/kg; melatonin 75 mg/kg; embodiment/comparative raw material 3.5 g/kg), 50 mg/kg pentobarbital sodium i.p. 60 minutes after last administration, n=10. From the text: • Test group 1: diazepam group. • Test group 2: melatonin group. • Test group 3: diazepam+embodiment 1 group. • Test group 4: diazepam+embodiment 4 group. • Test group 5: diazepam+embodiment 5 group. • Test group 6: diazepam+comparative example 1 group. • Test group 7: diazepam+comparative example 2 group.
Note: embodiments and comparative examples were concentrated and dried to obtain test raw materials.
Test animals: Kunming mice, 18-22 g. (specific pathogen free (SPF) grade, provided by the Pharmacology Department of Traditional Chinese Medicine, Beijing University of Chinese Medicine).
Test method: The mice were randomly divided into a control group and a test group. The test group 1: diazepam of 0.75 mg/kg was administrated by gavage once a day for two consecutive weeks. The test group 2: melatonin of 75 mg/kg was administrated by gavage once a day for two consecutive weeks. The test group 3 to test group 7: after administrating diazepam of 0.75 mg/kg by gavage, 3.5 g/kg of the raw material of the embodiment or comparative example is administrated once a day for two consecutive weeks. After 60 minutes of the last intragastric administration, the mice in each group were injected with 50 mg/kg pentobarbital sodium intraperitoneally, and the sleep latency and sleep duration of the mice in each group were recorded with the disappearance of righting reflex more than […] as the sleep standard.

As to `CN1C(=O)CN=C(c2ccccc2)c2cc(Cl)ccc21` [Test group 1, diazepam], the Sleep duration is 126.37 ± 6.17 min and the Sleep latency was 2.47 ± 0.27 min.
Regarding `COc1ccc2[nH]cc(CCNC(C)=O)c2c1` [Test group 2, melatonin], the Sleep duration is 64.38 ± 3.70 min and the Sleep latency was 4.38 ± 0.35 min.
